The results in this text go back to patent US20250382344A1, “Soluble GLP1/GIP/NPY2 Receptor Triple Agonists” (Boehringer Ingelheim International GmH, priority 2024, published 2025).

The structures appear in SMILES notation. Where two headings read alike, the source gives them in different places.

For one series, the target named is T1, hGIPR (Homo sapiens, UniProt P48546).
T1 construct: expressed in transfected cells; host or cells: CHO CRE-luciferase reporter cells
T1 sequence (P48546 22-466): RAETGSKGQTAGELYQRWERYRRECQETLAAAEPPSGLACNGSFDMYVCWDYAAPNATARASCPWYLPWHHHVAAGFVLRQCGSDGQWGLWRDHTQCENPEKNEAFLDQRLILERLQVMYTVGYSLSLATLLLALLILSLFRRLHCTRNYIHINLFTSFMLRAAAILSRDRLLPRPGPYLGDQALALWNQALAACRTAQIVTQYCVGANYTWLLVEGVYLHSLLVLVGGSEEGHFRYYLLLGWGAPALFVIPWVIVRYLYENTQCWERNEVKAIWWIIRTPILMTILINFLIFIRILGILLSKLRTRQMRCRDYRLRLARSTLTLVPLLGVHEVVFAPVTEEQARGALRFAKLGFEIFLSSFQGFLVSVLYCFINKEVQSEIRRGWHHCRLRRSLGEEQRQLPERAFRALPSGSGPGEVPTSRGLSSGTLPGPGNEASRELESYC
In words: hGIPR CreLuc assay in 0.5% and 100% plasma (CHO CRE-luciferase reporter cells). Type of series: cell-based. The following applies: 0.5% human plasma, read-out: hGIPR 0.5% hP. In general terms: In a reporter assay the amount or activity of a reporter protein is the signal.

Another series addresses T2, hNPY2R (Homo sapiens, UniProt P49146).
T2 construct: expressed in transfected cells; host or cells: HEK-293 CRE-luciferase reporter cells
T2 sequence (P49146 1-381): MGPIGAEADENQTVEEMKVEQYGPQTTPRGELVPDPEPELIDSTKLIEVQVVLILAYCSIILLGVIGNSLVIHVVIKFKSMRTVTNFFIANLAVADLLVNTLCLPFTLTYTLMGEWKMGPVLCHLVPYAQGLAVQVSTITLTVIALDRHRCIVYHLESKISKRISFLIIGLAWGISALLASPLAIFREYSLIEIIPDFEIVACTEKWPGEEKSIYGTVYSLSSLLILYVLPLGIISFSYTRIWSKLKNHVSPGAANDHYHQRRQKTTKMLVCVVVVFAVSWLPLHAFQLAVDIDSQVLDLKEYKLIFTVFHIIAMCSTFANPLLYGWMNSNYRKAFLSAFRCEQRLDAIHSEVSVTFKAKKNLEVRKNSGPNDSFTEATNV
In words: hNPY2R CreLuc assay in 0.5% and 100% plasma (HEK-293 CRE-luciferase reporter cells). Type of series: cell-based. The following applies: HEK-293 reporter cells. The text has this:
CHO and HEK-293 recombinant cell lines express a luciferase reporter gene under control of the CAMP responsive element (CRE). As a second recombinant protein the GLP-1 and NPY2 receptors were expressed in the reporter gene HEK cells, and the GIP receptor was expressed in the reporter gene CHO cells, respectively. Stimulation of these recombinant cells with an agonist leads to an increase of intracellular CAMP levels. In the presence of CAMP, the transcription factor CRE binding protein (CREB) binds to the CRE and to the CREB binding protein (CBP), which leads to transcription of the luciferase reporter gene. Peptides upon serial-dilution in 100% DMSO were transferred into 384-well assay plates with 5 μl pre-dispensed assay buffer (1×HBSS, 20 mM HEPES, pH7.4 supplemented with 0.5% human plasma) using acoustic dispensing on a Labcyte ECHO. Cryo-preserved transgenic reporter gene cells were thawed in assay buffer. 20 μl (10.000 cells/well) were added to the plate with the peptides and incubated for 4 hours at 37° C. in a humidified incubator. Following incubation, assay plates are equilibrated to room temperature, followed by addition of 25 μl of Bright-Glo™ Luciferase reagent, incubation at room temperature for 10 minutes and analysis of luminescence (Envision Reader). […] EC50 values were calculated by non-linear regression using sigmoid concentration-response with variable slope.
The same assays were run in the presence of 100% plasma with no additional buffer constituents.

Series [1] is described as follows: Solubility in 0.1 M phosphate buffer at pH 7. As to conditions: 0.1 M phosphate buffer at pH 7, 10 mg/mL final peptide concentration, shaking 2 hours at room temperature, peptides as TFA-salts; measured sample pH 6.5-7.0. The format is physicochemical.
Setting [2] is: 100% human plasma, read-out: hNPY2R 100% hP.

Regarding `CC[C@H](C)[C@H](NC(=O)[C@H](CC(C)C)NC(=O)[C@H](Cc1c[nH]cn1)NC(=O)[C@H](CCCNC(=N)N)NC(=O)[C@@H](NC(=O)[C@H](Cc1ccccc1)NC(=O)[C@H](C)NC(=O)C(C)(C)NC(=O)[C@H](CCC(N)=O)NC(=O)[C@H](C)NC(=O)[C@H](CCC(N)=O)NC(=O)[C@H](CCCCN)NC(=O)[C@H](CCC(=O)O)NC(=O)[C@H](CC(C)C)NC(=O)C(C)(C)NC(=O)[C@@H](NC(=O)[C@H](CO)NC(=O)[C@H](Cc1ccc(O)cc1)NC(=O)[C@H](CC(=O)O)NC(=O)[C@H](CO)NC(=O)[C@@H](NC(=O)[C@H](Cc1ccccc1)NC(=O)[C@@H](NC(=O)CNC(=O)[C@H](CCC(=O)O)NC(=O)C(C)(C)NC(=O)[C@@H](N)Cc1ccc(O)cc1)[C@@H](C)O)[C@@H](C)O)[C@@H](C)CC)C(C)C)C(=O)N[C@@H](CC(N)=O)C(=O)N[C@@H](CCCCNC(=O)CC[C@H](NC(=O)CC[C@H](NC(=O)CC[C@H](NC(=O)CC[C@H](NC(=O)CC[C@H](NC(=O)CC[C@H](NC(=O)[C@H]1CC[C@H](CNC(=O)CCCCCCCCCCCCCCCCC(=O)O)CC1)C(=O)O)C(=O)O)C(=O)O)C(=O)O)C(=O)O)C(=O)O)C(=O)NC(C)(C)C(=O)N[C@H](C(=O)N[C@@H](CCCNC(=N)N)C(=O)N[C@@H](CCC(N)=O)C(=O)N[C@@H](CCCNC(=N)N)C(=O)N[C@@H](Cc1ccc(O)cc1)C(N)=O)[C@@H](C)O` [Compound 31, Y-Aib-E-G-T-F-T-S-D-Y-S-I-Aib-L-E-K-Q-A-Q-Aib-A-F-V-R-H-L-I-N-K(1,3)-Aib-T-R-Q-R-Y-NH2.C18DA-TRX-gGlu-gGlu-gGlu-gGlu-gGlu-gGlu(1,2)], the values for the EC50 at hGIPR and at hNPY2R (setting [2]) were 0.6 nM and 131 nM, respectively. For the same molecule, the solubility at 2 h in series [1] is 4300 µg/mL.
In the case of `CC[C@H](C)[C@H](NC(=O)[C@H](CC(C)C)NC(=O)[C@H](Cc1c[nH]cn1)NC(=O)[C@H](CCCNC(=N)N)NC(=O)[C@@H](NC(=O)[C@H](Cc1ccccc1)NC(=O)[C@H](CCC(=O)O)NC(=O)C(C)(C)NC(=O)[C@H](CCC(N)=O)NC(=O)[C@H](C)NC(=O)[C@H](CCC(N)=O)NC(=O)[C@H](CCCCN)NC(=O)[C@H](CCC(=O)O)NC(=O)[C@H](CC(C)C)NC(=O)C(C)(C)NC(=O)[C@@H](NC(=O)[C@H](CO)NC(=O)[C@H](Cc1ccc(O)cc1)NC(=O)[C@H](CC(=O)O)NC(=O)[C@H](CO)NC(=O)[C@@H](NC(=O)[C@H](Cc1ccccc1)NC(=O)[C@@H](NC(=O)CNC(=O)[C@H](CCC(=O)O)NC(=O)C(C)(C)NC(=O)[C@@H](N)Cc1ccc(O)cc1)[C@@H](C)O)[C@@H](C)O)[C@@H](C)CC)C(C)C)C(=O)N[C@@H](CC(N)=O)C(=O)N[C@@H](CCCCNC(=O)[C@@H](N)CCCCNC(=O)[C@H](CCC(=O)O)NC(=O)CC[C@H](NC(=O)CC[C@H](NC(=O)CC[C@H](NC(=O)CC[C@H](NC(=O)CC[C@H](NC(=O)CC[C@H](NC(=O)CCCCCCCCCCCCCCCCC(=O)O)C(=O)O)C(=O)O)C(=O)O)C(=O)O)C(=O)O)C(=O)O)C(=O)N[C@@H](CC(C)C)C(=O)N[C@H](C(=O)N[C@@H](CCCNC(=N)N)C(=O)N[C@@H](CCC(N)=O)C(=O)N[C@@H](CCCNC(=N)N)C(=O)N[C@@H](Cc1ccc(O)cc1)C(N)=O)[C@@H](C)O` [Compound 32, Y-Aib-E-G-T-F-T-S-D-Y-S-I-Aib-L-E-K-Q-A-Q-Aib-E-F-V-R-H-L-I-N-K(1,3)-L-T-R-Q-R-Y-NH2.C18DA-gGlu-gGlu-gGlu-gGlu-gGlu-gGlu-Glu-eLys(1,2)], the EC50 amounted to 0.5 nM at hGIPR and 17.1 nM on hNPY2R (0.5% human plasma, read-out: hNPY2R 0.5% hP). Besides, the solubility at 2 h in series [1] worked out at 9100 µg/mL.
As to `CC[C@H](C)[C@H](NC(=O)[C@H](CC(C)C)NC(=O)[C@H](Cc1c[nH]cn1)NC(=O)[C@H](CCCNC(=N)N)NC(=O)[C@@H](NC(=O)[C@H](Cc1ccccc1)NC(=O)[C@H](C)NC(=O)C(C)(C)NC(=O)[C@H](CCC(N)=O)NC(=O)[C@H](C)NC(=O)[C@H](CCC(N)=O)NC(=O)[C@H](CCCCN)NC(=O)[C@H](CCC(=O)O)NC(=O)[C@H](CC(C)C)NC(=O)C(C)(C)NC(=O)[C@@H](NC(=O)[C@H](CO)NC(=O)[C@H](Cc1ccc(O)cc1)NC(=O)[C@H](CC(=O)O)NC(=O)[C@H](CO)NC(=O)[C@@H](NC(=O)[C@H](Cc1ccccc1)NC(=O)[C@@H](NC(=O)CNC(=O)[C@H](CCC(=O)O)NC(=O)C(C)(C)NC(=O)[C@@H](N)Cc1ccc(O)cc1)[C@@H](C)O)[C@@H](C)O)[C@@H](C)CC)C(C)C)C(=O)N[C@@H](CC(N)=O)C(=O)N[C@@H](CCCCNC(=O)CC[C@H](NC(=O)CC[C@H](NC(=O)CC[C@H](NC(=O)CC[C@H](NC(=O)CC[C@H](NC(=O)CC[C@H](NC(=O)CC[C@H](NC(=O)CCCCCCCCCCCCCCCCC(=O)O)C(=O)O)C(=O)O)C(=O)O)C(=O)O)C(=O)O)C(=O)O)C(=O)O)C(=O)NC(C)(C)C(=O)N[C@H](C(=O)N[C@@H](CCCNC(=N)N)C(=O)N[C@@H](CCC(N)=O)C(=O)N[C@@H](CCCNC(=N)N)C(=O)N[C@@H](Cc1ccc(O)cc1)C(N)=O)[C@@H](C)O` [Compound 38, Y-Aib-E-G-T-F-T-S-D-Y-S-I-Aib-L-E-K-Q-A-Q-Aib-A-F-V-R-H-L-I-N-K(1,3)-Aib-T-R-Q-R-Y-NH2.C18DA-gGlu-gGlu-gGlu-gGlu-gGlu-gGlu-gGlu(1,2)], the figures for the EC50 on hGIPR and at hNPY2R (setting [2]) were 0.6 nM and 141 nM, respectively. In addition, the solubility at 2 h in series [1] amounted to 4300 µg/mL.
The corresponding values for `CC[C@H](C)[C@H](NC(=O)[C@H](CC(C)C)NC(=O)[C@H](Cc1c[nH]cn1)NC(=O)[C@H](CCCNC(=N)N)NC(=O)[C@@H](NC(=O)[C@H](Cc1ccccc1)NC(=O)[C@H](CCC(=O)O)NC(=O)C(C)(C)NC(=O)[C@H](CCC(N)=O)NC(=O)[C@H](C)NC(=O)[C@H](CCC(N)=O)NC(=O)[C@H](CCCCN)NC(=O)[C@H](CCC(=O)O)NC(=O)[C@H](CC(C)C)NC(=O)C(C)(C)NC(=O)[C@@H](NC(=O)[C@H](CO)NC(=O)[C@H](Cc1ccc(O)cc1)NC(=O)[C@H](CC(=O)O)NC(=O)[C@H](CO)NC(=O)[C@@H](NC(=O)[C@H](Cc1ccccc1)NC(=O)[C@@H](NC(=O)CNC(=O)[C@H](CCC(=O)O)NC(=O)C(C)(C)NC(=O)[C@@H](N)Cc1ccc(O)cc1)[C@@H](C)O)[C@@H](C)O)[C@@H](C)CC)C(C)C)C(=O)N[C@@H](CC(N)=O)C(=O)N[C@@H](CCCCNC(=O)[C@@H](N)CCCCNC(=O)CC[C@H](NC(=O)CC[C@H](NC(=O)CC[C@H](NC(=O)CC[C@H](NC(=O)CC[C@H](NC(=O)CC[C@H](NC(=O)CCCCCCCCCCCCCCCCCCC(=O)O)C(=O)O)C(=O)O)C(=O)O)C(=O)O)C(=O)O)C(=O)O)C(=O)N[C@@H](CC(C)C)C(=O)N[C@H](C(=O)N[C@@H](CCCNC(=N)N)C(=O)N[C@@H](CCC(N)=O)C(=O)N[C@@H](CCCNC(=N)N)C(=O)N[C@@H](Cc1ccc(O)cc1)C(N)=O)[C@@H](C)O` [Compound 39, Y-Aib-E-G-T-F-T-S-D-Y-S-I-Aib-L-E-K-Q-A-Q-Aib-E-F-V-R-H-L-I-N-K(1,3)-L-T-R-Q-R-Y-NH2.C20DA-gGlu-gGlu-gGlu-gGlu-gGlu-gGlu-eLys(1,2)] are 0.9 nM, 119 nM and 4500 µg/mL.

The term solubility denotes the dissolved amount per volume that the medium holds.
